The text below walks through data of patent publication US7560479B2 (priority 2003, dated 2009).

Structures are written as SMILES.

Assay [1] has as its target T1, M2 muscarinic receptor subtype (Rattus norvegicus, UniProt P10980).
T1 construct: Submandibular glands and heart were isolated and placed in ice cold homogenising buffer; from tissue; host or cells: rat heart membrane homogenate
T1 sequence (P10980 1-466): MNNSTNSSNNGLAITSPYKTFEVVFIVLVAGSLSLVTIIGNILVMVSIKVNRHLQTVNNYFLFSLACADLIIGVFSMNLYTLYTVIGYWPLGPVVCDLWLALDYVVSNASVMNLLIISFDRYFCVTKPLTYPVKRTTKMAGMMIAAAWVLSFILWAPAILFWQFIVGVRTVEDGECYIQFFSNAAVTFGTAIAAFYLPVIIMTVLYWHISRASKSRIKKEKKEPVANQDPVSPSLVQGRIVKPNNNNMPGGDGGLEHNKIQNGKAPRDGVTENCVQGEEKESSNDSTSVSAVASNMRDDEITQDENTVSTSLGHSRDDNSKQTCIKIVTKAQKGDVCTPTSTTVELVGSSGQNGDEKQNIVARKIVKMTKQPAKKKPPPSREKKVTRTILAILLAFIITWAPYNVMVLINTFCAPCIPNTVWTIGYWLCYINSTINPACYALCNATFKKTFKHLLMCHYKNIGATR
Put plainly: biochemical. The class given is binding.

The subject of a further assay is isolated rat bladder. Put plainly: tissue or blood. The class given is cell-based. As to conditions: read-out: Functional Assay pkB.
Assay [2] has as its target T2, M3 muscarinic receptor subtype (Rattus norvegicus, UniProt P08483).
T2 construct: Submandibular glands and heart were isolated and placed in ice cold homogenising buffer; from tissue; host or cells: rat submandibular gland membrane homogenate
Put plainly: biochemical. Format: binding.

T2 sequence (P08483 whole entry): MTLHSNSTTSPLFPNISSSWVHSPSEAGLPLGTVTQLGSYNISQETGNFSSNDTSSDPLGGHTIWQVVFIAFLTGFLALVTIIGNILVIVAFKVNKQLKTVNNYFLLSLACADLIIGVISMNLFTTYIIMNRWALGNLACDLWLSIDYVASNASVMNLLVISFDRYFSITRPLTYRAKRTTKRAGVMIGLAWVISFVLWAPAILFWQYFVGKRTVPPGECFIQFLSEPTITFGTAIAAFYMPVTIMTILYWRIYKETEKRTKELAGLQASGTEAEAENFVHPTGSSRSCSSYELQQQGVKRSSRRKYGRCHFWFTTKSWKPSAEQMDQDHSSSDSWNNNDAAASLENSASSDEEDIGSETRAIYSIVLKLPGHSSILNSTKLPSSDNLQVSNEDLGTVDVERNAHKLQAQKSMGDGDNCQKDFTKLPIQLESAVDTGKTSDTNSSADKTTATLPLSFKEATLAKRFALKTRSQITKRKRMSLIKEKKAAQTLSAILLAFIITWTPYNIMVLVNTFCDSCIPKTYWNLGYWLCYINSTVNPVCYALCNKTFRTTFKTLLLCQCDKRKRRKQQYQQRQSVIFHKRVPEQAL

What is called Ki is the dissociation constant of the complex between target and ligand, obtained from inhibition or displacement. A low value points to higher affinity. Regarding `CC(C)=CCCN1C[C@@H]2[C@H](C1)[C@H]2NC(=O)[C@@](O)(c1ccccc1)C1CCC(F)(F)C1` (single isomer, unassigned) [Compound 13B, (2S)-(1α, 5α, 6α)-6-N-[3-(4-methyl-3-pentenyl)-3-azabicyclo[3.1.0]-hexyl-2-[(1R or 1S)-3,3-difluorocyclopentyl]-2-hydroxy-2-phenylacetamide], the Ki in assay [1] is > 10000 nM; in assay [2], 2000 nM. In addition, the Kb in the assay on isolated rat bladder was 67.6 nM.
Taken in the same sequence, the figures for `CC(C)=CCCN1CC2C(C1)C2NC(=O)C(O)(c1ccccc1)C1CCC(F)(F)C1` (single isomer, unassigned) [Compound 14, (2R)-(1α, 5α, 6α)-6-N-[3-(4-methyl-3-pentenyl)-3-azabicyclo[3.1.0]-hexyl]-2-[(1R or 1S)-3,3-difluorocyclopentyl]-2-hydroxy-2-phenylacetamide] were > 10000 nM, 1580 nM and 132 nM.
On to `O=C(N[C@H]1[C@@H]2CN(CCc3ccc4c(c3)OCO4)C[C@@H]21)[C@](O)(c1ccccc1)C1CCC(F)(F)C1` (stereo partly drawn) [Compound 9, (2R)-(1α, 5α, 6α)-6-N-[3-(2-(3,4-methylenedioxyphenyl)ethyl]-3-azabicyclo[3.1.0]-hexyl]-2-[(1R or 1S)-3,3-difluorocyclopentyl]-2-hydroxy-2-phenylacetamide], for which the Ki in assay [1] was 4270 nM; in assay [2], 79.4 nM.
As for `O=C(N[C@H]1[C@@H]2CN(CCc3ccc4c(c3)OCO4)C[C@@H]21)[C@@](O)(c1ccccc1)C1CCC(F)C1` (stereo partly drawn) [Compound 11, (2S)-(1α, 5α, 6α)-6-N-[3-(2-(3,4-methylenedioxyphenyl)ethyl]-3-azabicyclo[3.1.0]-hexyl]-2-[(1R or 1S, 3R or 3S)-3-fluorocyclopentyl]-2-hydroxy-2-phenylacetamide], the Ki is 6310 nM in assay [1] and 63.1 nM in assay [2].
